Experimental data: patent publication US7402575B2, “Methods of treating inflammation” (priority 2003, dated 2008)
Entries after “also recorded” stand apart in the source; their conditions may differ.

Legend:
[1] = tested on: E. coli sepsis in dogs; assay: Early Treatment Study: TAC given 1.5 h after sepsis induced, hemodynamics; format: in vivo, dog; details: for Arterial pH / HR / Hct / Lactate / Pwp / SVR: mean±SE, n=5
Experimental: (§1) In all of the studies outlined, the animals were randomized into treatment and nontreatment placebo groups (see below). The E. coli model used in these studies was identical to that previously described (6). Sepsis was induced by the intravenous infusion of 10^10 colony forming units of live E. coli (designation 011:B4). The bacteria were suspended in normal saline solution and were given over 0.5 hour. A constant infusion of approximately 5×10^9 colony forming units/hour of E. coli was then maintained for the remainder of the experiment.
(§2) The animals (16-24 kg) were initially anesthetized with thiopental sodium (20 mg/kg, intravenously) and constantly infused with sufentanil citrate (1 ug/min) and midazolam (5 ug/kg/min) (33). Drug rates were adjusted as required to abolish the palpebral reflex. The animals were placed in the supine position; the trachea was intubated with an endotracheal tube; and the lungs were mechanically ventilated at a tidal volume of 20 ml/kg. The ventilator rate was initially set to maintain blood pH at approximately 7.35 and was increased as necessary to reverse the metabolic acidosis that developed over the course of the study. Approximately 100% oxygen was inspired, so that hypoxemia would not affect the results of the study.
(§3) Under sterile conditions, the right jugular vein was percutaneously cannulated with an introducer (Arrow International, Reading, Pa.). A thermister tipped catheter was advanced from the jugular vein into the pulmonary artery to measure mean pulmonary arterial pressure (Ppa), mean pulmonary capillary wedge pressure (Pwp), mean right atrial pressure (Pra), thermodilution cardiac output (CO, Columbus Instruments, OH), and to obtain mixed venous oxygen blood samples. Another introducer was placed into the left jugular vein for administration of intravenous saline solution and the treatment or placebo drug (see below). A polyethylene catheter was also percutaneously placed into the femoral artery to measure mean blood pressure (MAP), and to obtain samples of blood for blood gas analysis, blood hematocrit (Hct), lactate concentrations, and blood cultures in some cases. Lactate was measured by an automated lactate dehydrogenase based assay (34) and was performed only in ETS and LTS because of equipment difficulties in the Pretreatment Study.
(§4) All catheters were connected to transducers (Cobe Laboratories), were referenced relative to the left atrium and were connected to a chart recorder (Astro-Med, W Warwick, R.I.). Heart rate (HR) was measured from the recorder tracing. Stroke-volume (SV) was calculated as CO/HR. Systemic vascular resistance (SVR) was calculated from [(MAP-Pra)/CO]×80. At each measurement interval (see below), a full set of measurements included MAP, CO, Ppa, Pra, Pwp, Hct, HR, SV, and arterial and mixed venous blood samples.
(§5) In the analysis, stroke work (SW) was the primary index of cardiac performance and the primary hemodynamic endpoint chosen in the in vivo studies (35,18) (see Discussion). At constant preload, SW reflects both the decreases in afterload and the changes in contractile function that accompany sepsis. SW was determined at approximately the same Pwp at each measurement interval. The baseline Pwp usually averaged ≈8-10 mmHg, and normal saline solution was given as necessary to maintain Pwp constant over the experimental period. SW was calculated from SV (MAP-Pwp).
Early Treatment Study. The purpose of this study was to assess the effect of TAC when treatment was administered during sepsis, but before myocardial depression developed. Treatment was administered at 1.5 hours after bacteremia was begun (6). Based on the lack of response of some animals in the LTS, the initial dose of TAC was increased to 400 mg, and followed by 50 mg/h mixed in 50 cc D5W over the remainder of the study. The placebo group received an identical amount of D5W over the course of the study.

[2] = tested on: E. coli sepsis in dogs; assay: Late Treatment Study: TAC given after 3.5 h of sepsis, hemodynamics; format: in vivo, dog; details: for Arterial pH / HR / Hct / Lactate / Pwp / SVR: mean±SE, n=5
Experimental: as §1, §2, §3, §4, §5
Late Treatment Study. In LTS, the objective was to see if TAC would reverse myocardial depression once it had already been produced. TAC was administered after 3.5 hours after the initiation of bacteria and was given over a 0.5 hour in 200 ml D5W. Because it was also noted in the in vitro trabecular preparation that once lysozyme was already placed into the bath, a higher concentration of TAC was required to inhibit the effect of lysozyme, the initial dose was increased to 250 mg in LTC. […]

[3] = tested on: Datura stramonium lectin; assay: Inhibition by TAC of lectin-induced depression of isometric tension in right ventricular trabecular preparation; format: cell-based, dog; details: TAC 10^−4M pre-treatment
Experimental: After baseline tension was determined, either the lectin or placebo was placed into respective organ baths. The concentrations of the lectins used were 10^−8M, 10^−7M, and 10^−6M based on the concentration of lysozyme found in sepsis that averaged approximately 10^−8M. In the case of Datura stramonium lectin, moreover, the effect of TAC on inhibiting the myocardial depression caused by this lectin was also examined. […] Measurements were obtained at 5 minute intervals. The changes in isometric tension measured from baseline were compared between the lectin treated and placebo preparations.
Lectins are nonenzymatic proteins that bind to carbohydrates and can be classified by their specificity for a particular sugar or polysaccharide (42). […] After baseline tension was determined, either the lectin or placebo (i.e. KH) was placed into respective organ baths in which the concentrations of the lectins used were similar to those described for Lzm-S. In the case of DSL, moreover, it was assessed whether TAC could also prevent the depression caused by this lectin.

[4] = Late Treatment Study, 2 h posttreatment (6 h post-sepsis)
[5] = Late Treatment Study, 3.5 h post sepsis, before TAC
[6] = Late Treatment Study, immediately after TAC infusion

CC(=O)N[C@H]1[C@H](O[C@H]2[C@H](O)[C@@H](NC(C)=O)C(O)O[C@@H]2CO)O[C@H](CO)[C@@H](O[C@@H]2O[C@H](CO)[C@@H](O)[C@H](O)[C@H]2NC(C)=O)[C@@H]1O (some centres unmarked) [TAC, N,N′,N″ triacetylglucosamine]
CO over the course of sepsis ([1]; 6 h): increased over the course of sepsis as compared with the nontreated group; also recorded: significant increases
SV over the course of sepsis ([1]; 6 h): showed a similar finding
Arterial pH ([1]; 6 h after sepsis initiated): 7.24 ± .03
HR ([1]; 6 h after sepsis initiated): 94 ± 8 beats/min
Hct ([1]; 6 h after sepsis initiated): 30 ± 4%
Lactate ([1]; 6 h after sepsis initiated): 1 ± .1 mM
Pwp ([1]; 6 h after sepsis initiated): 10.9 ± 1 mmHg
SVR ([1]; 6 h after sepsis initiated): 1792 ± 233 dynes s cm^−5
Arterial pH ([1]; baseline): 7.23 ± .03
HR ([1]; baseline): 68 ± 9 beats/min
Hct ([1]; baseline): 31 ± 2%
Lactate ([1]; baseline): 1 ± .1 mM
Pwp ([1]; baseline): 10 ± .5 mmHg
SVR ([1]; baseline): 2160 ± 581 dynes s cm^−5
MAP over the 6 hrs of sepsis ([1]; treatment group): increased in 4 of the 5 dogs
SW once myocardial depression was observed ([2]; Late Treatment Study): little effect of treatment on SW
Hemodynamics ([2]; Late Treatment Study (FIG. 11)): no effect
Arterial pH [2, 4]: 7.20 ± .04
HR [2, 4]: 90 ± 9 beats/min
Hct [2, 4]: 29 ± 6%
Lactate [2, 4]: 1.3 ± .4 mM
Pwp [2, 4]: 10 ± 1.6 mmHg
SVR [2, 4]: 1280 ± 182 dynes s cm^−5
Arterial pH [2, 5]: 7.24 ± .05
HR [2, 5]: 113 ± 9 beats/min
Hct [2, 5]: 26 ± 5%
Pwp [2, 5]: 9.8 ± 1 mmHg
SVR [2, 5]: 1200 ± 262 dynes s cm^−5
Arterial pH ([2]; Late Treatment Study, baseline): 7.34 ± .015
HR ([2]; Late Treatment Study, baseline): 60 ± 4 beats/min
Hct ([2]; Late Treatment Study, baseline): 34 ± 2%
Lactate ([2]; Late Treatment Study, baseline): .9 ± .2 mM
Pwp ([2]; Late Treatment Study, baseline): 9.4 ± 1 mmHg
SVR ([2]; Late Treatment Study, baseline): 2437 ± 343 dynes s cm^−5
Arterial pH [2, 6]: 7.20 ± .04
HR [2, 6]: 96 ± 8 beats/min
Hct [2, 6]: 27 ± 5%
Lactate [2, 6]: 1.3 ± .2 mM
Pwp [2, 6]: 10.5 ± 1.4 mmHg
SVR [2, 6]: 1268 ± 196 dynes s cm^−5
Effect of TAC on myocardial depression caused by Datura stramonium lectin [3]: markedly attenuated; also recorded: could be reversed by pre-treatment with TAC; also recorded: blocked the isometric depression
